Measured values reported in patent US5525595A, “3- or 4-glycosyloxybenzopyran derivative and antiallergic agent containing the derivative as active ingredient” (priority 1993, dated 1996).

Legend:
[1] = system: airway resistance in experimental asthma model; assay: Effect on experimental asthma model in guinea pigs; format: in vivo, guinea pigs (Male hadley); conditions: Cavia porcellus; 100 mg/kg oral, OVA challenge, guinea pigs; Table 7
Procedure: The asthma is typical allergic disease and we carried out this pharmacological test by well known experimental asthma model in guinea pigs in order to confirm that the compounds of the present invention suppress the asthma. In the following, the method of the pharmacological test will be explained.
Method: Male hadley guinea pigs were immunized by intraperitoneal injection of saline (1 ml) containing 5 mg of ovalbumine (OVA) three times at interval of one week. 2 weeks after final immunization, the animals were challenged by inhalation of 1% OVA-saline solution for 1 minute and then the airway resistance of the animals were measured for 30 minutes with PULMOS-1 (Medical Interface Project Station Inc.) after the inhalation. The compounds of the present invention (test compounds) suspended in 0.5% CMCNa were given orally at a dose of 100 mg/kg. As positive control group, Disodium Cromoglicate (DSCG), well known anti-allergic agent, in saline were injected at a dose of 20 mg/kg into the vein of the animals. As vehicle control group, only 0.5% CMCNa solution were given orally. The inhibition (%) of the airway resistance in vehicle control group was calculated according to equation 5 and the result was shown in Table 7. Each experimental group consisted of 5 guinea pigs. [formula] In equation 5: A: Maximum airway resistance in vehicle control group
B: Maximum airway resistance in test compounds group or positive control group

[2] = system: contact dermatitis induced by picryl chloride; assay: Effect on contact dermatitis induced by picryl chloride in mice (delayed type hypersensitization); format: in vivo; conditions: Mus musculus; 100 mg/kg oral, ear thickness 24 hours after challenge; Table 6; read-out: Inhibition (%) against the increase of ear thickness
Procedure: The delayed type hypersensitization is inhibited by steroid, but can not be effected by known anti-allergic agents. In the following, the method of the pharmacological test will be explained.
Method: Mice, shaved their abdominal skin on previous day, were immunized by applying 0.1 ml of acetone containing 7 mg of picryl chloride to the skin of the abdomen. 7 days after immunization, the thickness of the ear was measured with a dial thickness gauge, then mice were challenged by painting 5 μl of 1% picryl chloride olive oil solution to each side skin of left ear. 24 hours after challenge, the thickness of the left ear was measured again and the increase (%) of thickness was calculated according to equation 2. The compounds of the present invention (test compounds) suspended in 0.5% CMCNa were forcibly administered orally at a dose of 100 mg/kg at 1 hour before and 16 hours after challenge. As vehicle control group, only 0.5% CMCNa solution were administered orally, and as positive control group, Prednisolone, steroid hormone, and Tranilast were administered orally at the doses of 10 mg/kg and 100 mg/kg, respectively.
Increase (%)=(A-B)/B×100 (Equation 2)
A: thickness of the ear at 24 hours after challenge
B: thickness of the ear before challenge
Inhibition(%)=(C-D)/C×100 (equation 3)
C: The increase (%) in vehicle control group
D: The increase (%) in test compounds group or positive control group

[3] = system: homologous passive cutaneous anaphylaxis (PCA) reaction; assay: Effect on homologous passive cutaneous anaphylaxis (PCA) reaction in rats; format: in vivo, rats (Male wistar rats); conditions: Rattus norvegicus, 0.5 h; 100 mg/kg oral, 1 hour before antigen, rats; Table 3
Procedure: This experimental animal model is caused by immediate type allergic reaction, namely, antigen-antibody reaction. In the following, the method of this pharmacological test will be explained.
Method: Male wistar rats (9 weeks old) were intradermally administered 0.05 ml of anti-serum against trinitrophenylated ascaris (TNP-As) into two sites on the shaved dorsal skin. 48 hours later, 3-glycosyloxybenzopyran derivatives and 4-glycosyloxybenzopyran derivatives (test compounds) suspended in 0.5% sodium carboxymethylcellulose (CMCNa) were given orally at a dose of 100 mg/kg to the animals. 1 hour after administration of Test compounds, the animals were induced anaphylaxis by injection of saline (1 ml) dissolving 5 mg of Evans Blue and 1 mg of TNP-As into the tail vein of the animals. 30 minutes after induction of anaphylaxis, animals were anesthetized by ether and killed by bleeding, and were flayed dorsal skin. The leakage of dye was assessed by measuring the diameter (mean of shortest and longest diameter) of the blue spot on the inside surface of dorsal skin. As vehicle control group, only 0.5% CMCNa solution was administered orally, and as positive control group, Tranilast suspended in 0.5% CMCNa were administered orally at a dose of 100 mg/kg to the animals with the same method as the test compounds groups. Each experimental group consisted of 5 rats. [formula] In equation 1: A: leakage of dye in vehicle control group
B: leakage of dye in test compound group or in positive control group
The anti-allergic activity of the compounds of the present invention were compared with that of analogous compounds which were published in the Patent (EP-A-0598117) by PCA reaction. This pharmacological test was performed according to the method described in Test Example 1.

Row | SMILES | inhibition in vivo at 100 mg/kg [1] | inhibition in vivo at 100 mg/kg [2] | inhibition in vivo at 100 mg/kg [3]
1 | O=c1oc2cc(OCc3ccccc3)ccc2c(O)c1O[C@@H]1O[C@H](CO)[C@@H](O)[C@H](O)[C@H]1O [compound 22] | 59.4% | 53.4% | 53.8%
2 | O=c1oc2cc(O)ccc2c(O)c1O[C@H]1O[C@H](CO)[C@@H](O)[C@H](O)[C@@H]1O [compound 23] | 46.6% | 45% | 47.8%
3 | CCCCOc1ccc2c(O)c(O[C@H]3O[C@H](CO)[C@@H](O)[C@H](O)[C@@H]3O)c(=O)oc2c1 [compound 24] | 58.3% | 52.6% | 54.3%
4 | CCCCCCCCOc1ccc2c(O)c(O[C@H]3O[C@H](CO)[C@@H](O)[C@H](O)[C@@H]3O)c(=O)oc2c1 [compound 25] | 68.6% | 57.3% | 50.9%
5 | CCCCCCCCCCCCOc1ccc2c(O)c(O[C@H]3O[C@H](CO)[C@@H](O)[C@H](O)[C@@H]3O)c(=O)oc2c1 [compound 26] | 66.3% | 55.9% | 53.3%
6 | CC(C)Oc1ccc2c(O)c(O[C@H]3O[C@H](CO)[C@@H](O)[C@H](O)[C@@H]3O)c(=O)oc2c1 [compound 27] | 56.7% | 51.2% | 47.8%
7 | CCC=CCCOc1ccc2c(O)c(O[C@H]3O[C@H](CO)[C@@H](O)[C@H](O)[C@@H]3O)c(=O)oc2c1 [compound 28] | 57.2% | 50.3% | 53.4%
8 | CC(C)=CCC/C(C)=C/COc1ccc2c(O)c(O[C@H]3O[C@H](CO)[C@@H](O)[C@H](O)[C@@H]3O)c(=O)oc2c1 [compound 29] | 56.1% | 53.6% | 45.6%
9 | O=C(Oc1ccc2c(O)c(O[C@H]3O[C@H](CO)[C@@H](O)[C@H](O)[C@@H]3O)c(=O)oc2c1)c1ccccc1 [compound 30] | 47.8% | 48.7% | 41.7%
10 | O=c1oc2cc(OCc3ccccc3)ccc2c(O)c1O[C@H]1O[C@H](CO)[C@@H](O)[C@H](O)[C@@H]1O [compound 31] | 53.5% | 48.6% | 46.9%
11 | O=c1oc2cc(O)ccc2c(O)c1O[C@@H]1O[C@H](CO)[C@H](O)[C@H](O)[C@H]1O [compound 32] | 54.8% | 48.1% | 43.2%
12 | CCCCOc1ccc2c(O)c(O[C@@H]3O[C@H](CO)[C@H](O)[C@H](O)[C@H]3O)c(=O)oc2c1 [compound 33] | 68.1% | 62.5% | 57.2%
13 | CCCCCCCCOc1ccc2c(O)c(O[C@@H]3O[C@H](CO)[C@H](O)[C@H](O)[C@H]3O)c(=O)oc2c1 [compound 34] | 78.3% | 64.2% | 64.3%
14 | CCCCCCCCCCCCOc1ccc2c(O)c(O[C@@H]3O[C@H](CO)[C@H](O)[C@H](O)[C@H]3O)c(=O)oc2c1 [compound 35] | 75.2% | 61.1% | 60.1%
